TGI and GI50 data for ten compounds are collected here from PubChem BioAssay (NCI).

Values joined by “and” are separate entries in the source; they are usually repeats but may differ in a detail not shown here. Equal entries are not always repeated.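 Step 1: Grow cells in 96-well plates. Step 2: Expose to compound for 48 hours at 5 concentrations. Step 3: Interpolate endpoints linearly; if unreached, use highest concentration. Abbreviation: GI50, concentration required for 50% inhibition of growth. TGI: total growth inhibition.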

Test systems include UO-31 renal; SN12C renal; M14 melanoma; K-562 leukemia; MCF7 breast; TK-10 renal; MOLT-4 leukemia; UACC-62 melanoma; T-47D breast; NCI/ADR-RES ovarian.
Holding throughout (assay): NCI tumour cell line growth inhibition, 48 h

For `CCN(CC)CCC(=O)N1C/C(=C/c2ccccc2)C(=O)/C(=C\c2ccccc2)C1`, the TGI with UO-31 renal came to 3.78 µM; in the experiment with SN12C renal it was 3.39 µM; in the experiment with M14 melanoma, 6.63 µM; in the experiment with K-562 leukemia it was 2.62 µM; with MCF7 breast it was 1.69 µM; in the experiment with TK-10 renal, 18.4 µM. Moreover, the values for the TGI with MOLT-4 leukemia, in the experiment with UACC-62 melanoma and with T-47D breast were 1.33 µM, 4.92 µM and 4.07 µM, respectively.
Take `COc1cc2c(cc1OC)-c1ncc3cc(OC)c(OC)c(OC)c3c1C2`: the GI50 in the experiment on NCI/ADR-RES ovarian is 19.1 µM; in the experiment with UO-31 renal, 5.49 µM; in the experiment on SN12C renal, 14.4 µM; in the experiment on M14 melanoma it was 45.2 µM; in the experiment on K-562 leukemia, 3.89 µM; with TK-10 renal it was 27.7 µM. The GI50 in the experiment with UACC-62 melanoma was 7.42 µM; in the experiment on T-47D breast it was greater than 100 µM. Moreover, the TGI in the experiment with NCI/ADR-RES ovarian was 89.2 µM; with UO-31 renal it was 53.6 µM; in the experiment with SN12C renal it was 47.9 µM; with M14 melanoma, greater than 100 µM; in the experiment with K-562 leukemia, 48.6 µM; with TK-10 renal, greater than 100 µM. Besides, the TGI was 26.8 µM in the experiment on UACC-62 melanoma and greater than 100 µM in the experiment on T-47D breast.
Turning to `CN[C@H]1CC[C@]23C[C@]24CC[C@]2(C)[C@@H]([C@H](C)N(C)C)CC[C@@]2(C)[C@@H]4CC[C@H]3C1(C)C`, the TGI in the experiment on NCI/ADR-RES ovarian came out at 36.6 µM; with UO-31 renal it was 24.5 µM; in the experiment on SN12C renal, 29.1 µM; with M14 melanoma it was 37.2 µM; with MCF7 breast it was 36.2 µM; in the experiment with TK-10 renal, 39.3 µM. In addition, the TGI in the experiment with MOLT-4 leukemia is 60.1 µM; in the experiment with UACC-62 melanoma it was 32.1 µM; with T-47D breast, 35.2 µM.
`C[C@@H]1OC(=O)NN=C1c1ccc(-c2ccc(F)cc2)c(C(F)(F)F)c1`: the GI50 with NCI/ADR-RES ovarian is 5.08 µM; in the experiment with UO-31 renal it was 7.79 µM; in the experiment on SN12C renal, 5.63 µM; with M14 melanoma it was 7.14 µM; in the experiment with K-562 leukemia it was 3.2 µM; in the experiment with MCF7 breast, 10.1 µM. Besides, the GI50 in the experiment on TK-10 renal was 1.65 µM; with MOLT-4 leukemia it was 5.27 µM; in the experiment on T-47D breast, 5.26 µM. For the same compound, the TGI was 21.2 µM with NCI/ADR-RES ovarian; 20.9 µM with UO-31 renal; 21.8 µM in the experiment with SN12C renal; 21.6 µM in the experiment with M14 melanoma; greater than 100 µM in the experiment with K-562 leukemia; 25 µM in the experiment on MCF7 breast. The values for the TGI in the experiment on TK-10 renal, in the experiment on MOLT-4 leukemia and with T-47D breast were 19.6 µM, 33.4 µM and 25.8 µM, respectively.
For `CC(C)Cc1ccc(C(C)/C=C2\CCC(CN3CCCCC3)C2=O)cc1` (stereo unspecified), the TGI in the experiment with UO-31 renal is 23.7 µM; in the experiment with SN12C renal it was 4.44 µM; in the experiment with M14 melanoma it was 18.2 µM; in the experiment on K-562 leukemia, 9.19 µM; in the experiment with MCF7 breast, 4.08 µM; in the experiment on TK-10 renal it was 8.95 µM. Also, the TGI was found to be 5.7 µM with MOLT-4 leukemia, 24.2 µM in the experiment on UACC-62 melanoma and 45.5 µM in the experiment with T-47D breast.
For `COC(=O)CCCNC(=O)C(=O)c1c(O)c(O)c(C(C)C)c2cc(C)c(-c3c(C)cc4c(C(C)C)c(O)c(O)c(C(=O)C(=O)NCCCC(=O)OC)c4c3O)c(O)c12`, the GI50 is 0.834 µM with NCI/ADR-RES ovarian; 0.558 µM in the experiment with UO-31 renal; 0.844 µM in the experiment on SN12C renal; 0.753 µM in the experiment on M14 melanoma; 0.246 µM in the experiment with K-562 leukemia; 0.641 µM in the experiment on MCF7 breast. For the same compound, the figures for the GI50 with TK-10 renal, in the experiment on UACC-62 melanoma and in the experiment on T-47D breast were 0.34 µM, 0.657 µM and 0.558 µM, respectively. Besides, the TGI was found to be 16.6 µM with NCI/ADR-RES ovarian; 4.05 µM in the experiment with UO-31 renal; 6.85 µM in the experiment with SN12C renal; 2.31 µM in the experiment with M14 melanoma; 6.88 µM with K-562 leukemia; 4.71 µM with MCF7 breast. The TGI in the experiment on TK-10 renal is 2.73 µM; with UACC-62 melanoma, 2.07 µM; with T-47D breast, 3.06 µM.
Take `CCCCCC(=C/c1ccccc1)/C=N/N=C(N)N`: the GI50 was 1.53 µM in the experiment on NCI/ADR-RES ovarian; 1.19 µM in the experiment with UO-31 renal; 1.56 µM with M14 melanoma; 1.34 µM in the experiment with MCF7 breast; 1.75 µM in the experiment on TK-10 renal; 1.53 µM in the experiment on MOLT-4 leukemia. Further, in the experiment on T-47D breast, the GI50 is 1.65 µM. The TGI in the experiment with NCI/ADR-RES ovarian is 3.3 µM; in the experiment with UO-31 renal, 2.5 µM; with M14 melanoma, 3.09 µM; with MCF7 breast it was 2.74 µM; in the experiment on TK-10 renal, 3.32 µM; in the experiment with MOLT-4 leukemia, 3.51 µM. This compound also displayed a TGI in the experiment on T-47D breast of 3.62 µM.
Take `C[C@H](C(O)CC(=O)C(C)(C)O)[C@H]1CC[C@@]2(C)[C@@H]3CC[C@H]4C(C)(C)[C@@H](OC5OC(COC6OC(CO)C(O)C(O)C6O)C(O)C(O)C5O)CC[C@]4(C)C3=CC[C@]12C` (stereo partly specified): the TGI in the experiment on UO-31 renal, in the experiment on SN12C renal, in the experiment with M14 melanoma, in the experiment on K-562 leukemia, with MCF7 breast and in the experiment with TK-10 renal was greater than 100 µM each time. For the same compound, the TGI in the experiment with UACC-62 melanoma and in the experiment with T-47D breast was greater than 100 µM each time.
`Cc1ccc(-n2c3c(c4c(CN)c(O)ccc42)CCc2ccccc2C3=O)cc1`: the GI50 in the experiment with NCI/ADR-RES ovarian is 12.5 µM; in the experiment with UO-31 renal, 8.2 µM; in the experiment with SN12C renal it was 14.2 µM; in the experiment on M14 melanoma it was 5.5 µM; in the experiment with MCF7 breast, 17.3 µM; in the experiment on TK-10 renal, 13.3 µM. In addition, the figures for the GI50 in the experiment on MOLT-4 leukemia, with UACC-62 melanoma and with T-47D breast were 2.33 µM, 14 µM and 22.8 µM, respectively. Also, the TGI was 28.5 µM with NCI/ADR-RES ovarian; 22.1 µM in the experiment on UO-31 renal; 28.2 µM with SN12C renal; 18.9 µM in the experiment with M14 melanoma; greater than 100 µM in the experiment on MCF7 breast; 26.3 µM with TK-10 renal. The TGI came to 6.51 µM in the experiment with MOLT-4 leukemia, 27 µM in the experiment with UACC-62 melanoma and 50.1 µM in the experiment with T-47D breast.
As for `CCCCCCC(O)C(O)CCC(O)C1CCC(CCCCC(O)CC2=CC(C)OC2=O)O1` (stereo unspecified), the GI50 was 11 µM in the experiment with NCI/ADR-RES ovarian; 16 µM in the experiment on UO-31 renal; 16.2 µM in the experiment with SN12C renal; 17.7 µM with M14 melanoma; 10.1 µM in the experiment on MCF7 breast; 22.3 µM in the experiment on TK-10 renal. The GI50 is 13.4 µM in the experiment on MOLT-4 leukemia and 4.99 µM with T-47D breast. For the same compound, the TGI in the experiment with NCI/ADR-RES ovarian is 7.03 µM and 29.3 µM; in the experiment on UO-31 renal, 7.75 µM and 35.2 µM; in the experiment on SN12C renal it was 34 µM; with M14 melanoma it was 36 µM; with K-562 leukemia it was 27.6 µM; with MCF7 breast, 28 µM. The results for the TGI in the experiment with TK-10 renal, in the experiment with MOLT-4 leukemia and in the experiment on T-47D breast were greater than 100 µM, 43.9 µM and 40.7 µM, respectively.
